Data published in patent publication US20240368668A1, “SUBSTRATES AND BIOMARKERS OF ADAMTS7” (The Broad Institute, Inc., priority 2021, published 2024).
Square brackets hold non-standard residues; d marks the D form. Ends that are not written are not given here. Met(O) = CS(=O)CC[C@H](N)C(=O)O

test system: mouse ADAMTS7; assay: TMT10 TAILS N-terminomics, SMC2 experiment (process replicates, trypsin/AspN digest); assay type: cell-based; conditions: SMC2_TAILS HC; log fold change of N-terminal peptide, Ad-mADAMTS7 WT over EQ
Method in brief: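 Full-length mouse ADAMTS7 (WT or E373Q mutant, C-terminal 3xFLAG) or luciferase was transduced via adenovirus, 50 MOI, into HCA-SMC (SMC1, SMC2) or HUVEC. SMC1: pooled media, technical triplicates 400 ug; SMC2: process triplicates 300 ug; HUVEC: process triplicates 200 ug, bFGF2 10 ng/ml.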

Row | Substance | logFC.mWT.over.mEQ
1 | VAT1_42 (AASPPLLR; listed as Homo sapiens) | 2.95
2 | TTN_5975 (VKEPPVEFTKPL; listed as Homo sapiens) | 3.34
3 | SPOCK1_27 (LAGGAGPNHGNFL; listed as Homo sapiens) | 2.69
4 | PAK4_141 (HSEAGGGSG; listed as Homo sapiens) | 1.78
5 | LTBP3_103 (LTGSGFR; listed as Homo sapiens) | 5.72
6 | VIM_333 (LKGTNESLER; listed as Homo sapiens) | 3.84
7 | NID2_291 (HSSVPLGR; listed as Homo sapiens) | 3.16
8 | TNS1_236 (QEGLAGYQR; listed as Homo sapiens) | 2.08
9 | MAP4_816 (VASTGPSSR; listed as Homo sapiens) | 2.51
10 | LTBP2_290 (QHVGLSR; listed as Homo sapiens) | 3.05
11 | LTBP2_502 (LVENSVETRPPPWLPASPGHSLW; listed as Homo sapiens) | 2.85
12 | LTBP2_250 (SAAGEGTLAR; listed as Homo sapiens) | 2.70
13 | NID1_360 (FHQQHPQVI; listed as Homo sapiens) | 2.69
14 | SHC2_267 (VAKDPINQRACHIL; listed as Homo sapiens) | 1.85
15 | NBEA_1892 (LEKVAPLLR; listed as Homo sapiens) | 2.12
16 | TNPO2_744 (VQ[Met(O)]VLNNLVEII[code n]RP[code n]TPKTLLE; listed as Homo sapiens) | 4.02

Row | Substance | logFC.mWT.over.mEQ
17 | POSTN_727 (IITGPEIKYTR; listed as Homo sapiens) | 2.60
18 | VIM_314 (QESTEYR; listed as Homo sapiens) | 3.28
19 | PTPRF_1859 (MRYEGVVDMFQTVKTLR; listed as Homo sapiens) | 2.59
20 | MAP4_815 (AVASTGPSSR; listed as Homo sapiens) | 1.70
21 | LOXL2_45 (HQPQAPANVAKIQLR; listed as Homo sapiens) | 2.51
22 | PPP1R18_295 (LSETLTR; listed as Homo sapiens) | 2.32
23 | NID2_951 (YAYPGAR; listed as Homo sapiens) | 2.80
24 | LOXL1_218 (AVASAGVIYPYQPR; listed as Homo sapiens) | 1.83
25 | LTBP2_79 (VAGLQPVER; listed as Homo sapiens) | 1.62
26 | MMP1_185 (FQPGPGIGG; listed as Homo sapiens) | 1.46
27 | MMP1_100 (FVLTEGNPR; listed as Homo sapiens) | 2.39
28 | TRGC2_86 (HRCIVRHENNK; listed as Homo sapiens) | 2.93
29 | PLIN3_75 (VSGAQPILSKL; listed as Homo sapiens) | 2.25
30 | QSOX1_210 (HKGVAVR; listed as Homo sapiens) | 1.69
31 | SRGN_59 (LLPGESNKIPR; listed as Homo sapiens) | 3.66
32 | LTBP3_208 (FLVPLGPGQISA; listed as Homo sapiens) | 1.53

same assay, conditions: SMC2_TAILS HC; log fold change, mWT over mEQ

Row | Substance | logFC.mWT.over.mEQ
33 | COL1A2_866 (LLGAPGILGLPGSR; listed as Homo sapiens) | 3.22
34 | COL4A2_71 (YNGPPGLQGFPGLQGR; listed as Homo sapiens) | 1.70
35 | COL1A2_305 (LTGAKGAAGLPGVAGAPGLPGPR; listed as Homo sapiens) | 1.92
36 | COL1A2_1028 (LQGLPGIAGHHGDQGAPGSVGPAGPR; listed as Homo sapiens) | 1.98
37 | COL1A2_960 (AGAPGPHGPVGPAGKHGNR; listed as Homo sapiens) | 2.87
38 | COL1A2_630 (VGTAGPSGPSGLPGER; listed as Homo sapiens) | 2.33
39 | COL1A2_80 (QYDGKGVGLGPGPMGLMGPR; listed as Homo sapiens) | 1.15
40 | COL1A2_270 (VGNAGPAGPAGPR; listed as Homo sapiens) | 3.47
41 | COL18A1_1505 (LQPPVVQLHDSNPYPR; listed as Homo sapiens) | 1.47

same assay, conditions: log fold change, ADAMTS7 WT over EQ

Row | Substance | logFC.mWT.over.mEQ
42 | VIM_333 (LKGTNESLER; listed as Homo sapiens) | 4.39
43 | THBS2_290 (LSENLKR; listed as Homo sapiens) | 4.05
44 | SERBP1_56 (QAAAQTNSNAAGKQLR; listed as Homo sapiens) | 4.06
45 | VIM_314 (QESTEYR; listed as Homo sapiens) | 2.60
46 | SRGN_59 (LLPGESNKIPR; listed as Homo sapiens) | 4.33
